From patent US7060722B2, “Proline derivatives and use thereof as drugs” (Mitsubishi Pharma Corporation, priority 2000, dated 2006)
Structures can show the parent of a compound that is named as a salt.

Legend:
[1] = molecular target: T1, Human plasma DPP-IV (Homo sapiens, UniProt P27487); assay: Plasma DPP-IV inhibitory activity, fluorescence assay (human plasma); type: biochemical; conditions: human plasma (10-fold diluted), Gly-Pro-MCA substrate, room temperature 60 min
T1 construct: from tissue; host or cells: human plasma
T1 sequence (P27487 39-766 limits assumed): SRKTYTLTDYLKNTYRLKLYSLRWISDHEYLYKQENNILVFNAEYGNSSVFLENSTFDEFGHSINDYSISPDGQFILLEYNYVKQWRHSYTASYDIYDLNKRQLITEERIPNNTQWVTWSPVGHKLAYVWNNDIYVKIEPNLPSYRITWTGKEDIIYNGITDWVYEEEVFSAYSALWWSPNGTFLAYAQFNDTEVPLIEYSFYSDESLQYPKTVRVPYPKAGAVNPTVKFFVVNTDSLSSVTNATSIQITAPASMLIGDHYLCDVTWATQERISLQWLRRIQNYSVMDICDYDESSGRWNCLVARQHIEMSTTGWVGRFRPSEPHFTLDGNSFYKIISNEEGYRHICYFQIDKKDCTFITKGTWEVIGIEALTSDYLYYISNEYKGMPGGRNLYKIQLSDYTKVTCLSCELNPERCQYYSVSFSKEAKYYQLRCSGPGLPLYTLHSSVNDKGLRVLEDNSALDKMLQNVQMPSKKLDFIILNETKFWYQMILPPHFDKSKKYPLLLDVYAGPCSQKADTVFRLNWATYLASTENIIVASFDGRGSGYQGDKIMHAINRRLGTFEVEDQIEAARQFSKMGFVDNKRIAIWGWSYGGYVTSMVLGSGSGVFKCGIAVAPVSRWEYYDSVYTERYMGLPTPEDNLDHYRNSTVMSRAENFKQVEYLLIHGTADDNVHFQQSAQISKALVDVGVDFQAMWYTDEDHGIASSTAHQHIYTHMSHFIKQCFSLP
Description: (§1) The plasma DPP-IV inhibitory activity of human and rat was measured by the fluorescence assay method.
(§2) The inhibitory rate relative to the solvent addition group was calculated and IC50 values were determined by logistic analysis.

[2] = molecular target: T2, Rat plasma DPP-IV (Rattus norvegicus, UniProt P14740); assay: Plasma DPP-IV inhibitory activity, fluorescence assay (rat plasma); type: biochemical; conditions: rat plasma (10-fold diluted), Gly-Pro-MCA substrate, room temperature 60 min
T2 construct: from tissue; host or cells: rat plasma
T2 sequence (P14740 37-767 limits assumed): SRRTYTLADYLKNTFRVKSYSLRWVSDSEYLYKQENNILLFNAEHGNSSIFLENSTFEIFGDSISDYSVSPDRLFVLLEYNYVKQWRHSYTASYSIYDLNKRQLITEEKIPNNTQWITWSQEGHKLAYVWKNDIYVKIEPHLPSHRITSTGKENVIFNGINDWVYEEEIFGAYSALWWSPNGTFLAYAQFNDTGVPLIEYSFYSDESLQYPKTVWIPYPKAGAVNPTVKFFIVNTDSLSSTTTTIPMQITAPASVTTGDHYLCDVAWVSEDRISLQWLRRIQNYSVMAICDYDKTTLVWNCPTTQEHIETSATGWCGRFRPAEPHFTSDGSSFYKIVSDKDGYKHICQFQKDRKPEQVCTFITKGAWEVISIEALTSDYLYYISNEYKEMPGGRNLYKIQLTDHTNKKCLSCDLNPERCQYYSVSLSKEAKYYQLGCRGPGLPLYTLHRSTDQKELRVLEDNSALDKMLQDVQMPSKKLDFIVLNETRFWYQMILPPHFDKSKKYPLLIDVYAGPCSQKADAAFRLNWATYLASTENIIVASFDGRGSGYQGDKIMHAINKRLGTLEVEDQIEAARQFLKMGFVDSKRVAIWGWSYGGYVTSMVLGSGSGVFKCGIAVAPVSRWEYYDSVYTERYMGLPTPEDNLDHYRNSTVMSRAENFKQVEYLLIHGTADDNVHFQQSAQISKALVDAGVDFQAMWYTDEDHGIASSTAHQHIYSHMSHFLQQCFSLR
Description: as §1, §2

IC50 [1] [nM] | IC50 [2] [nM] | Compound
0.45 | 0.75 | O=C(O)c1ccc(N2CCN([C@@H]3CN[C@H](C(=O)N4CCSC4)C3)CC2)nc1 [Example 212, 3-{(2S,4S)-4-[4-(5-carboxy-2-pyridyl)-1-piperazinyl]-2-pyrrolidinylcarbonyl}-1,3-thiazolidine trihydrochloride]
0.3 | 0.22 | N#C[C@@H]1CCCN1C(=O)[C@@H]1C[C@H](NCc2ccc([N+](=O)[O-])cc2)CN1 [Example 29, (S)-2-cyano-1-[(2S,4S)-4-(4-nitrophenylmethyl)amino-2-pyrrolidinylcarbonyl]pyrrolidine dihydrochloride]
6.8 | 9.4 | CN(Cc1cccc(C#N)c1)[C@@H]1CN[C@H](C(=O)N2CCSC2)C1 [Example 99, 3-{(2S,4S)-4-[N-(3-cyanophenylmethyl)-N-methylamino]-2-pyrrolidinylcarbonyl}-1,3-thiazolidine dihydrochloride]
1.5 | 2.1 | O=C([C@@H]1C[C@H](N2CCC(c3cc4ccccc4s3)CC2)CN1)N1CCSC1 [Example 143, 3-{(2S,4S)-4-[4-(2-benzo[b]thienyl)piperidino]-2-pyrrolidinylcarbonyl}-1,3-thiazolidine dihydrochloride]
0.61 | 1.1 | O=C([C@@H]1C[C@H](N2CCC(c3nc4ccc(F)cc4[nH]3)CC2)CN1)N1CCSC1 [Example 303, 3-{(2S,4S)-4-[4-(5-fluoro-2-benzimidazolyl)piperidino]-2-pyrrolidinylcarbonyl}-1,3-thiazolidine trihydrochloride]
3.7 | 4.2 | O=C([C@@H]1C[C@H](N2CCN(c3ccc([N+](=O)[O-])cn3)CC2)CN1)N1CCCC1 [Example 186, 1-{(2S,4S)-4-[4-(5-nitro-2-pyridyl)-1-piperazinyl]-2-pyrrolidinylcarbonyl}pyrrolidine trihydrochloride]
0.51 | 0.64 | N#C[C@@H]1CCCN1C(=O)[C@@H]1C[C@H](Nc2ncccn2)CN1 [Example 24, (S)-2-cyano-1-[(2S,4S)-4-(2-pyrimidinyl)amino-2-pyrrolidinylcarbonyl]pyrrolidine hydrochloride]
1.1 | 1.9 | O=C([C@@H]1C[C@H](N2CCC(c3nn(CCN4CCOCC4)c(=O)o3)CC2)CN1)N1CCSC1 [Example 296, 3-((2S,4S)-4-{4-[4-(2-morpholinoethyl)-5-oxo-4,5-dihydro-1,3,4-oxadiazol-2-yl]piperidino}-2-pyrrolidinylcarbonyl)-1,3-thiazolidine trihydrochloride]
1.1 | 0.55 | CCOC(=O)CN(CC(=O)OCC)[C@@H]1CN[C@H](C(=O)N2CCC[C@H]2C#N)C1 [Example 39, (S)-2-cyano-1-{(2S,4S)-4-[N,N-bis(ethoxycarbonylmethyl)amino]-2-pyrrolidinylcarbonyl}pyrrolidine dihydrochloride]
0.33 | 0.34 | O=C([C@@H]1C[C@H](N2CCN(c3nc4ccc(C(F)(F)F)cc4s3)CC2)CN1)N1CCSC1 [Example 242, 3-{(2S,4S)-4-[4-(6-trofluoromethyl-2-benzothiazolyl)-1-piperazinyl]-2-pyrrolidinylcarbonyl}-1,3-thiazolidine dihydrochloride]

Compound | IC50 [1] [nM] | IC50 [2] [nM]
N#C[C@@H]1CCCN1C(=O)[C@@H]1C[C@H](Nc2ccc(C(F)(F)F)cn2)CN1 [Example 20, (S)-2-cyano-1-[(2S,4S)-4-(5-trifluoromethyl-2-pyridyl)amino-2-pyrrolidinylcarbonyl]pyrrolidine 2 trifluoroacetate] | 0.54 | 0.41
